These results are taken from patent US20250011330A1, “Imidazo[1,2- a]pyrazine and Imidazo[1,2- a]pyridine Based Tyrosyl-DNA Phosphodiesterase I (TDP1) Inhibitors” (The USA, As Represented by the Secretary, Department of …, priority 2021, published 2025).

Like-named read-outs stand apart in the source and are kept apart here. Some results are limits rather than exact numbers.

The subject of assay [1] is human colon cancer cell line HCT116. As to the kind of experiment: Synergistic effect with camptothecin (CPT) based on cell viability. The note with it: list in description. Here is the method:
The synergistic effects of the TDP1 inhibitors with CPT were tested in human colon cancer cell line HCT116 based on cell viability (Table 3, FIGS. 2-5). Cells were first seeded in a 384-well black-clear plate until 30% confluency and then incubated with a serial dilution of CPT at the range of 0-100 nM in the present or the absence of TDP1 inhibitors for 72 h at 37° C. Viable cell numbers were counted from the brightfield images taken by Biotek Cytation 5 (FIGS. 2-3). Fractional affect (Fa) and combination index (Ci) were analyzed with CompuSyn software. Synergistic scores of each TDP1 inhibitors were calculated and collected based on the data analysis from SynergyFinder (FIG. 4). […]

The target in a further assay is TOP1 (Homo sapiens (Human), UniProt P11387). As to the kind of experiment: Degradation of TOP1 in cells (western blotting). The format is cell-based. The note with it: list in description.
The target in assay [2] is T1, TDP2 (Homo sapiens (Human), UniProt O95551). The experiment in a line: gel-based TDP2 fluorescence assay in vitro. The format is biochemical.
T1 sequence (O95551 whole entry, species assumed): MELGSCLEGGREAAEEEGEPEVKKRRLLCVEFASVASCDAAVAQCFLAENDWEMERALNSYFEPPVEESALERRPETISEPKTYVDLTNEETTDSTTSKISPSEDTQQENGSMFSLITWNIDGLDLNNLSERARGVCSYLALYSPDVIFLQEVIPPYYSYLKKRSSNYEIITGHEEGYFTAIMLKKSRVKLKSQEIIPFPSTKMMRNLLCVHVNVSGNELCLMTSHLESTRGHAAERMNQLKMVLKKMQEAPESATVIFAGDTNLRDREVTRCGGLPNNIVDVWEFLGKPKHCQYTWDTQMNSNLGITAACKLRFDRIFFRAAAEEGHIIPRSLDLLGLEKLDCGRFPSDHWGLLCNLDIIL
For assay [3], the target named is T2, TDP1 (Homo sapiens (Human), UniProt Q9NUW8). The experiment in a line: gel-based TDP1 fluorescence assay of unpurified oxime libraries at 100 μM. The format is biochemical. The note with it: 100 μM in DMSO, oximes without purification. Here is the method: The oximes were evaluated by gel-based TDP1 fluorescence assay in a concentration of 100 μM in DMSO. The fluorescence of DMSO blank vial was set as 0 and the fluorescence for the reference without TDP1 was set as 100%. Preparation: A mixture of aminooxy-containing 105 or 106 (10 μL, 30 mM in DMSO), aldehydes M1-T12 (10 μL, 30 mM in DMSO) and acetic acid (10 μL, 150 mM in DMSO) were agitated at room temperature overnight. Oximes 5-M1-T12 or 6-M1-T12 (30 uL, 10 mM in DMSO) were afforded.
T2 sequence (Q9NUW8 whole entry): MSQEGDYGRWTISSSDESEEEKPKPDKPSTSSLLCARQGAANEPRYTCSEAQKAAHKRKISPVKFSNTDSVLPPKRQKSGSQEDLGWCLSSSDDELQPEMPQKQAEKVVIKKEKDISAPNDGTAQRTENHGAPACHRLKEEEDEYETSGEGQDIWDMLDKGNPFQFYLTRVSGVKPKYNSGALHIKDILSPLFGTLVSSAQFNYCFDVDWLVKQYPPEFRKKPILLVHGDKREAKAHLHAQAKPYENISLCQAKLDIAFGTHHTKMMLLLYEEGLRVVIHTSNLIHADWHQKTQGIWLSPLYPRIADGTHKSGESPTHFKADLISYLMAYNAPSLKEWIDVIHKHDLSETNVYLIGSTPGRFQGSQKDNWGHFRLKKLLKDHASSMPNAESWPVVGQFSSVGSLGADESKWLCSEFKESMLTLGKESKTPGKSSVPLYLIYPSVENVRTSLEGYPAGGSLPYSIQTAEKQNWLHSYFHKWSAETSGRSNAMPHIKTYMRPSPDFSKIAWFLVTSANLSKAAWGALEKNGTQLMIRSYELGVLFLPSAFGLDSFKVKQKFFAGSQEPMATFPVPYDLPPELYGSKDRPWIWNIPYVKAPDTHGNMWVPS
Two set of oximes 105-X and 106-Y (XZ700-M1-T12, XZ699-M1-T12) ([…], 10 mM in DMSO) were prepared about 240 each starting from aminooxy-containing 105 (XZ700) or 106 (XZ699) based on the following method. A mixture of aminooxy-containing 105 or 106 (10 μL, 30 mM in DMSO) with about 240 aldehydes M1-T12 (10 μL, 30 mM in DMSO) (Table 4) separately in the present of acetic acid (10 μL, 150 mM in DMSO) were agitated at room temperature overnight in three 96-well plates in parallel. The formed oximes 105-M1 to 105-T12 and 106-M1 to 106-T12 (30 uL, 10 mM in DMSO) were diluted to 100 μM in DMSO and evaluated by gel-based TDP1 fluorescence assay. The fluorescence of the gel band of DMSO blank vial was set as 0 and the fluorescence for the reference gel band without TDP1 was set as 100%. […] Among them, with same aldehyde structures D1 and P3, both oximes 105-series (105-D1, 105-P3) and 106-series (106-D1, 106-P3) show great (>90%) TDP1 inhibition. […] To confirm the inhibitions, we have further evaluated the purified lead oximes by HPLC. (Table 7; FIG. 9)

The target of assay [4] is T2, TDP1. The experiment in a line: TDP1 gel-based in vitro fluorescence assay. The assay is classed as biochemical.
In assay [5] the target is T2, TDP1. As to the kind of experiment: Degradation assay (western blotting) of TDP1 in HCT116 and HEK293 cells. The format is cell-based. Particulars: for TDP1 degrading activity: list in description. Here is the method: The degradation effect of the TDP1 inhibitors on TDP1 in human colon cancer cell line HCT116 and embryonic kidney cell line HEK293 were studied. Cells were first seeded in a 6-well plate until 60-80% confluency and then incubated with a serial dilution of TDP1 inhibitors at the range of 25-200 μM for 24-72 h at 37° C. […] Samples were then sonicated at 30% for 10 s and centrifuged for 15 min at 15000 rpm at 4 Celsius. Supernatant were collected and the concentration of total protein were measured by BCA Protein Assay Kit according to its protocols. Four micrograms of total protein for each sample were loaded and TDP1 level were conducted by western blotting.

In assay [6] the target is T1, TDP2. As to the kind of experiment: TDP2 degrading activity as stated in the description. The note with it: list in description.
The mark [7] stands for this setting: Table 8, lead compounds with different linkers, read-out: TDP2 IC50.
[8] abbreviates: purified oximes and SMM leads, read-out: TDP1 IC50.
Where [9] appears, read: Table 8, lead compounds with different linkers, read-out: TDP1 IC50.
[10] abbreviates: Table 8, ratio of IC50 TDP2 to TDP1.

As for “4-((2-(4-(2-((4-(5-((λ^2-Azaneylidene)-λ^3-methyl)pyridin-2-yl)phenyl)methoxy)ethyl)phenyl)-7-phenylimidazo[1,2-a]pyridin-3-yl)amino)benzoic acid [XZ726]”, the synergy with camptothecin result in assay [1] is reported as “exhibit synergy with camptothecin”. For the same compound, at TOP1, the TOP1 degrading activity entry is “exhibit TOP1 degrading activity”. Moreover, the IC50 on TDP2 [2] (setting [7]) was greater than 100 µM.

On TDP1 [3], `N#Cc1ccc(-c2ccc(C=NOCc3ccc4nc(-c5ccccc5)c(Nc5ccc(C(=O)O)cc5)n4c3)cc2)nc1` [Compound 105-D1, 4-((6-((((4-(5-cyanopyridin-2-yl)benzylidene)amino)oxy)methyl)-2-phenylimidazo[1,2-a]pyridin-3-yl)amino)benzoic acid] yielded an inhibition at 100 µM greater than 90%.

In turn, `Cc1cncc(Oc2ccc(C=NOCc3ccc4nc(-c5ccccc5)c(Nc5ccc(C(=O)O)cc5)n4c3)cc2)n1` [Compound 105-P3, 4-((6-((((4-((6-methylpyrazin-2-yl)oxy)benzylidene)amino)oxy)methyl)-2-phenylimidazo[1,2-a]pyridin-3-yl)amino)benzoic acid] returned an inhibition at 100 µM against TDP1 [3] greater than 90%. Also, the concentration for half-maximal inhibition (IC50) at TDP1 [4] (setting [8]) was greater than 100 µM.

Consider `O=C(O)c1ccc(Nc2c(-c3ccc(CON=Cc4ccc(N5CCCC5=O)cc4)cc3)nc3cc(-c4ccccc4)ccn23)cc1` [Compound 106-B7, 4-((2-(4-((((4-(2-oxopyrrolidin-1-yl)benzylidene)amino)oxy)methyl)phenyl)-7-phenylimidazo[1,2-a]pyridin-3-yl)amino)benzoic acid], for which the TDP1 inhibition result at TDP1 [3] is “good inhibition”.

With `N#Cc1ccc(-c2ccc(C=NOCc3ccc(-c4nc5cc(-c6ccccc6)ccn5c4Nc4ccc(C(=O)O)cc4)cc3)cc2)nc1` [Compound 106-D1, 4-((2-(4-((((4-(5-cyanopyridin-2-yl)benzylidene)amino)oxy)methyl)phenyl)-7-phenylimidazo[1,2-a]pyridin-3-yl)amino)benzoic acid], the inhibition at 100 µM against TDP1 [3] is greater than 90%.

With `O=C(O)c1ccc(Nc2c(-c3ccc(CON=Cc4ccc(-c5cnccn5)cc4)cc3)nc3cc(-c4ccccc4)ccn23)cc1` [Compound 106-E6, 4-((7-phenyl-2-(4-((((4-(pyrazin-2-yl)benzylidene)amino)oxy)methyl)phenyl)imidazo[1,2-a]pyridin-3-yl)amino)benzoic acid], on TDP1 [3], the TDP1 inhibition entry is reported as “good inhibition”.

Consider `O=C(O)c1ccc(Nc2c(-c3ccc(CON=Cc4ccc(-c5ccccc5)cc4)cc3)nc3cc(-c4ccccc4)ccn23)cc1` [Compound 106-M10, 4-((2-(4-(((([1,1′-biphenyl]-4-ylmethylene)amino)oxy)methyl)phenyl)-7-phenylimidazo[1,2-a]pyridin-3-yl)amino)benzoic acid], for which the TDP1 inhibition entry on TDP1 [3] is “poor inhibition”.

For `Cc1cncc(Oc2ccc(C=NOCc3ccc(-c4nc5cc(-c6ccccc6)ccn5c4Nc4ccc(C(=O)O)cc4)cc3)cc2)n1` [Compound 106-P3, 4-((2-(4-((((4-((6-methylpyrazin-2-yl)oxy)benzylidene)amino)oxy)methyl)phenyl)-7-phenylimidazo[1,2-a]pyridin-3-yl)amino)benzoic acid], on TDP1 [3], the inhibition at 100 µM was greater than 90%.

With `Cc1ncsc1-c1ccc(CNC(=O)[C@@H]2C[C@@H](O)CN2C(=O)[C@@H](NC(=O)COCCOCCn2cc(COc3ccc(-c4nc5cc(-c6ccccc6)ccn5c4Nc4ccc(C(=O)O)cc4)cc3)nn2)C(C)(C)C)cc1` [XZ679, 4-((2-(4-((1-(2-(2-(2-(((S)-1-((2S,4R)-4-Hydroxy-2-((4-(4-methylthiazol-5-yl)benzyl)carbamoyl)pyrrolidin-1-yl)-3,3-dimethyl-1-oxobutan-2-yl)amino)-2-oxoethoxy)ethoxy)ethyl)-1H-1,2,3-triazol-4-yl)methoxy)phenyl)-7-phenylimidazo[1,2-a]pyridin-3-yl)amino)benzoic acid], the TOP1 degrading activity result on TOP1 was “exhibit TOP1 degrading activity”. Further, the IC50 on TDP2 [2] (Table 10, PROTACs, read-out: TDP2 IC50) is greater than 100 µM. The TDP1 degrading activity entry at TDP1 [5] is “exhibit TDP1 degrading activity”.

As to `N#Cc1ccc(-c2ccc(/C=N/OCc3ccc(-c4nc5cc(-c6ccccc6)ccn5c4Nc4ccc(C(=O)O)cc4)cc3)cc2)nc1` [XZ701, (E)-4-((2-(4-((((4-(5-Cyanopyridin-2-yl)benzylidene)amino)oxy)methyl)phenyl)-7-phenylimidazo[1,2-a]pyridin-3-yl)amino)benzoic acid], on TDP1 [4], the “selectivity against TDP1 than against TDP2” value is reported as 74 fold. The “FC (fold change)” value on TDP1 [4] (Table 7, ratio of IC50 TDP2 to TDP1) is reported as 74. The IC50 on TDP1 [4] (setting [9]) was 0.38 ± 0.06 µM; on TDP1 [4] (setting [8]), 0.38 ± 0.06 µM; on TDP2 [2] (Table 7, HPLC-purified oxime leads, read-out: TDP2 IC50), 28.1 ± 8.9 µM. For the same compound, the “TDP1 inhibition relative to SMM lead 3” value at TDP1 [4] (fold more than SMM lead 3) was determined as 10 fold. Besides, in assay [1], the synergy with camptothecin result is recorded as “exhibit synergy with camptothecin”. In addition, the TOP1 degrading activity entry on TOP1 is recorded as “exhibit TOP1 degrading activity”. Further, the TDP2 degrading activity entry on TDP2 [6] is reported as “exhibit TDP2 degrading activity”. Moreover, the TDP1 degrading activity entry on TDP1 [5] is recorded as “exhibit TDP1 degrading activity”.

Turning to `N#Cc1ccc(-c2ccc(Cn3cc(-c4ccc(-c5nc6cc(-c7ccccc7)ccn6c5Nc5ccc(C(=O)O)cc5)cc4)nn3)cc2)nc1` [XZ718, 4-((2-(4-(1-(4-(5-Cyanopyridin-2-yl)benzyl)-1H-1,2,3-triazol-4-yl)phenyl)-7-phenylimidazo[1,2-a]pyridin-3-yl)amino)benzoic acid], the IC50 came to 3.1 ± 0.2 µM on TDP1 [4] (setting [9]) and 25.9 ± 0.4 µM at TDP2 [2] (setting [7]). In addition, the “FC (fold change)” value at TDP1 [4] (setting [10]) was determined as 8. Besides, the synergy with camptothecin result in assay [1] is reported as “exhibit synergy with camptothecin”. Moreover, the TOP1 degrading activity result on TOP1 is given as “exhibit TOP1 degrading activity”. The TDP2 degrading activity result on TDP2 [6] is “exhibit TDP2 degrading activity”. Besides, the TDP1 degrading activity result on TDP1 [5] was “exhibit TDP1 degrading activity”.

Take `N#Cc1ccc(-c2ccc(Cn3cc(-c4ccn5c(Nc6ccc(C(=O)O)cc6)c(-c6ccccc6)nc5c4)nn3)cc2)nc1` [XZ722, 4-((7-(1-(4-(5-Cyanopyridin-2-yl)benzyl)-1H-1,2,3-triazol-4-yl)-2-phenylimidazo[1,2-a]pyridin-3-yl)amino)benzoic acid]: the IC50 was 5.95 ± 1.25 µM at TDP1 [4] (setting [9]) and 18 ± 1.2 µM on TDP2 [2] (setting [7]). In addition, the “FC (fold change)” value on TDP1 [4] (setting [10]) is recorded as 3. On TOP1, the TOP1 degrading activity result was “exhibit TOP1 degrading activity”. Besides, at TDP2 [6], the TDP2 degrading activity entry was “exhibit TDP2 degrading activity”. At TDP1 [5], the TDP1 degrading activity result is “exhibit TDP1 degrading activity”.

As to `O=C(O)c1ccc(Nc2c(-c3ccccc3OS(=O)(=O)F)nc3cc(-c4ccccc4)ccn23)cc1` [XZ730, 4-((2-(2-((Fluorosulfonyl)oxy)phenyl)-7-phenylimidazo[1,2-a]pyridin-3-yl)amino)benzoic acid], the IC50 turned out to be 17.8 µM against TDP1 [4] and 39.5 µM on TDP2 [2]. Also, the “inhibition of TDP1, primary screen” value at TDP1 [4] (111 μM, preincubation with TDP1 at room temperature overnight) is listed as “inhibition”. Moreover, the “selectivity compared with TDP2, secondary screen” value on TDP1 [4] (preincubation overnight at room temperature) was 2 fold. The “inhibition, secondary screen” value at TDP1 [4] (preincubation with TDP overnight at room temperature) was “μM inhibition”. In addition, at TDP2 [6], the TDP2 degrading activity result is “exhibit TDP2 degrading activity”. Further, the “inhibition of TDP2, primary screen” value at TDP2 [2] (111 μM, preincubation with TDP2 at room temperature overnight) was “inhibition”. In addition, the “TDP1 degradation by covalent inhibitors” value at TDP1 [5] (FIG. 39) is reported as “degrade TDP1”. Also, the TDP1 degrading activity result on TDP1 [5] was “exhibit TDP1 degrading activity”.
